Assay results from ChEMBL document CHEMBL4414547, “Discovery of a novel 2,5-dihydroxycinnamic acid-based 5-lipoxygenase inhibitor that induces apoptosis and may impair autophagic flux in RCC4 renal cancer cells” (Eur J Med Chem, 2019).
Active and inactive are the calls of the source. The rule behind the calls is not given here.

Experiments:
RCC4/VHL [1] = experiment: Cytotoxicity against VHL-positive human RCC4/VHL cells assessed as reduction in cell viability incubated for 4 days by XTT assay; format: functional, cell-based; conditions: 96 h
786-0 [2] = experiment: Cytotoxicity against VHL-deficient human 786-0 cells assessed as reduction in cell viability incubated for 4 days by XTT assay; format: functional, cell-based; conditions: 786-0, 96 h
[3] = molecular target: T1, Polyunsaturated fatty acid 5-lipoxygenase (Homo sapiens) (UniProt P09917); experiment: Inhibition of human 5-LO transfected in HEK293 cells coexpressing FLAP assessed as reduction in leukotriene formation at 1 uM using arachidonic acid as substrate preincubated for 5 mins followed by calcium ionophore A23187/arachidonic acid addition and measured after 15 mins by RP-HPLC analysis; format: cell-based
T1 sequence (whole entry): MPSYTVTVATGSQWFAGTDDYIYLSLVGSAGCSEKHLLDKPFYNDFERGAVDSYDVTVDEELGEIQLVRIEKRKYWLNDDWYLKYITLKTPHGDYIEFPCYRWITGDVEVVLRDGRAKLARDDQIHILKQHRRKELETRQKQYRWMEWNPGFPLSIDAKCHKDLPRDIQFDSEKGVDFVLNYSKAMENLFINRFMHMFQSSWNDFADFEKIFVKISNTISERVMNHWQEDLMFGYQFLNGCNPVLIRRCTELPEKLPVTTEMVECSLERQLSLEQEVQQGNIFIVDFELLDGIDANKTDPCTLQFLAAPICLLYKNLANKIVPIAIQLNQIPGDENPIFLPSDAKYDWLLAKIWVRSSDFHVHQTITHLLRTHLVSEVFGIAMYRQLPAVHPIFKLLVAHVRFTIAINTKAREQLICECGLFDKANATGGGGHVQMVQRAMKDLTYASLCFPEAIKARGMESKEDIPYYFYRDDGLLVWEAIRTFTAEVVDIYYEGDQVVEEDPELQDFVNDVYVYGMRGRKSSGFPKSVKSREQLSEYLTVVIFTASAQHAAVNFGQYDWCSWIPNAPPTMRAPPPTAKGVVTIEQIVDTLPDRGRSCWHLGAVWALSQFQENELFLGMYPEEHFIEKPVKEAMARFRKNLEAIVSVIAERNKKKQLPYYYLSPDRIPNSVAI

[4] = Antioxidant activity assessed as DPPH radical scavenging activity incubated for 30 mins under dark condition; format: functional
[5] = molecular target: T1, Polyunsaturated fatty acid 5-lipoxygenase (Homo sapiens); experiment: Inhibition of 5-LO in human PMNL cells assessed as reduction in leukotriene formation at 1 uM preincubated for 5 mins followed by thapsigargin stimulation measured after 15 mins by RP-HPLC analysis relative to control; format: cell-based
[6] = Selectivity ratio of IC50 for VHL-positive human RCC4/VHL cells to IC50 for VHL-deficient human RCC4 cells; format: functional
RCC4 [7] = experiment: Cytotoxicity against VHL-deficient human RCC4 cells assessed as reduction in cell viability incubated for 4 days by XTT assay; format: functional, cell-based; conditions: RCC4, 96 h
[8] = Cytotoxicity against VHL-positive human RCC10 cells assessed as reduction in cell viability incubated for 4 days by XTT assay; format: functional, cell-based; conditions: 96 h
786-0 [9] = experiment: Cytotoxicity against VHL-positive human 786-0 cells assessed as reduction in cell viability incubated for 4 days by XTT assay; format: functional, cell-based; conditions: 786-0, 96 h
[10] = Cytotoxicity against VHL-deficient human RCC10 cells assessed as reduction in cell viability incubated for 4 days by XTT assay; format: functional, cell-based; conditions: 96 h
DNA [11] = experiment: Induction of DNA damage in VHL-deficient human RCC4 cells assessed as increase in p53 expression at 0.5 uM incubated for 24 hrs by Western blot analysis; format: cell-based
RCC4/VHL [12] = experiment: Induction of apoptosis in human RCC4/VHL cells assessed as cleavage of pro-caspase 3 at 0.5 uM incubated for 24 hrs by Western blot analysis; format: functional, cell-based
RCC4 [13] = experiment: Induction of apoptosis in VHL-deficient human RCC4 cells assessed as cleavage of pro-caspase 3 at 0.5 uM incubated for 24 hrs by Western blot analysis; format: functional, cell-based
DNA [14] = experiment: Induction of DNA damage in human RCC4/VHL cells assessed as increase in p53 expression at 0.5 uM incubated for 24 hrs by Western blot analysis; format: cell-based
RCC4 [15] = experiment: Induction of DNA damage in VHL-deficient human RCC4 cells assessed as induction of p53 expression at 1.25 uM incubated for 24 hrs by Western blot analysis; format: functional, cell-based
RCC4 [16] = experiment: Induction of cellular phenotype changes in VHL-deficient human RCC4 cells at 1.25 uM incubated for 24 hrs by inverted microscopic analysis; format: functional, cell-based
RCC4/VHL [17] = experiment: Inhibition of autophagic flux in human RCC4/VHL cells assessed as increase in p62 expression at 1.25 uM incubated for 24 hrs by Western blot analysis; format: functional, cell-based
RCC4/VHL [18] = experiment: Induction of apoptosis in human RCC4/VHL cells assessed as cleavage of pro-caspase 3 at 1.25 uM incubated for 24 hrs by Western blot analysis; format: functional, cell-based
RCC4/VHL [19] = experiment: Induction of cellular phenotype changes in human RCC4/VHL cells at 1.25 uM incubated for 24 hrs by inverted microscopic analysis; format: functional, cell-based
RCC4 [20] = experiment: Induction of autophagy in VHL-deficient human RCC4 cells assessed as increase in conversion of LC3B1 to LC3B2 expression at 1.25 uM incubated for 24 hrs by Western blot analysis; format: functional, cell-based
RCC4/VHL [21] = experiment: Induction of DNA damage in human RCC4/VHL cells assessed as induction of p53 expression at 1.25 uM incubated for 24 hrs by Western blot analysis; format: functional, cell-based
RCC4 [22] = experiment: Inhibition of autophagic flux in VHL-deficient human RCC4 cells assessed as increase in p62 expression at 1.25 uM incubated for 24 hrs by Western blot analysis; format: functional, cell-based
RCC4/VHL [23] = experiment: Induction of autophagy in human RCC4/VHL cells assessed as increase in conversion of LC3B1 to LC3B2 expression at 1.25 uM incubated for 24 hrs by Western blot analysis; format: functional, cell-based
RCC4 [24] = experiment: Induction of apoptosis in VHL-deficient human RCC4 cells assessed as cleavage of pro-caspase 3 at 1.25 uM incubated for 24 hrs by Western blot analysis; format: functional, cell-based

| Compound | IC50 (RCC4/VHL [1]) | IC50 (786-0 [2]) | inhibition [3] | IC50 [4] | IC50 (RCC4 [7]) | IC50 [8] | IC50 (786-0 [9]) | IC50 [10] | further results |
| --- | --- | --- | --- | --- | --- | --- | --- | --- | --- |
| O=C(/C=C/c1ccc(O)c(O)c1)OCCc1ccccc1 [CAFFEIC ACID PHENETHYL ESTER] | 29.1 µM | 26.8 µM | Active | 18.2 µM | 14 µM | 12.6 µM | 43.8 µM | 19.8 µM | inhibition [5]: Active; Ratio IC50 [6]: 2.1 |
| COc1cccc2c1C(=O)c1c(O)c3c(c(O)c1C2=O)C[C@@](O)(C(=O)CO)C[C@@H]3O[C@H]1C[C@H](N)[C@H](O)[C@H](C)O1 | – | – | – | – | – | – | – | – | Activity (DNA [11]): Active; Activity (RCC4/VHL [12]): inactive; Activity (RCC4 [13]): inactive; Activity (DNA [14]): Active |
| Cc1cccc(Nc2nc(-c3ccncc3)cs2)c1 | 5.3 µM | 5.7 µM | – | – | 1.2 µM | 12.6 µM | 6.9 µM | 8.6 µM | Activity (RCC4 [15]): inactive; Activity (RCC4 [16]): inactive; Ratio IC50 [6]: 4.4; inhibition (RCC4/VHL [17]): Active; Activity (RCC4/VHL [18]): inactive; Activity (RCC4/VHL [19]): inactive; Activity (RCC4 [20]): Active; Activity (RCC4/VHL [21]): inactive; inhibition (RCC4 [22]): Active; Activity (RCC4/VHL [23]): Active; Activity (RCC4 [24]): inactive |
| O=C(/C=C/c1cccc(O)c1O)OCCCc1ccccc1 | – | – | Active | – | – | – | – | – | – |
| O=C(OCCc1ccccc1)c1cc(O)ccc1O | > 100 µM | > 100 µM | inactive | 17.3 µM | 42.8 µM | 3.9 µM | > 100 µM | 14.8 µM | – |
| O=C1O[C@H]([C@@H](O)CO)C(O)=C1O [ASCORBIC ACID] | – | – | – | 13.9 µM | – | – | – | – | – |
| O=C(/C=C/c1cc(O)ccc1O)OCCCc1ccccc1 | – | – | Active | – | – | – | – | – | – |
